Laboratory results from patent publication US10508077B2 (FORMA Therapeutics, Inc., priority 2015, dated 2019).

Target: T1, Full length human recombinant HDAC8 protein (Homo sapiens, UniProt Q9BY41)
T1 construct: Full length human recombinant HDAC8 protein was expressed in baculoviral system; made in house
T1 sequence (Q9BY41 1-377): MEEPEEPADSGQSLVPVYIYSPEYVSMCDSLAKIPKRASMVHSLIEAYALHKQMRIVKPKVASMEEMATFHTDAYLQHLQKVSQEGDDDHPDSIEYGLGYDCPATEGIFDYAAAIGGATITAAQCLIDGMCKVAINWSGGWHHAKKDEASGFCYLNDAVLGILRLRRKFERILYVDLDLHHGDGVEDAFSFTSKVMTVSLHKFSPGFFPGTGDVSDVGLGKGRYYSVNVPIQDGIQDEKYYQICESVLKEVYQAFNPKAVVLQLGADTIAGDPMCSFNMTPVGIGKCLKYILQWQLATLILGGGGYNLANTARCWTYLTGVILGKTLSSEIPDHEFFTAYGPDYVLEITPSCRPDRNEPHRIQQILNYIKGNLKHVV
Assay: In vitro histone deacetylase assay: enzymatic HDAC8 assay, electrophoretic mobility shift
Assay type: biochemical
Conditions: substrate RHKK(Ac)-NH2, 1 nM enzyme, compounds listed under IC50 range headings
Method in brief: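 Baculovirus-expressed full-length human HDAC8 (1 nM) deacetylated 2 µM fluorescent RHKK(Ac)-NH2 peptide in pH 7.5 HEPES, 1% DMSO, at 25 °C, with 12 compound concentrations at 3× spacing. SDS-quenched; product and substrate resolved by microfluidic electrophoresis, P/(S+P) converted to percent inhibition, and IC50 obtained by 4-parameter fit.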

Structure (SMILES) | IC50
CSCC(=O)N1CCN(c2ccccc2/C=C/C(=O)NO)CC1 [Example I-194, (E)-N-hydroxy-3-(2-(4-(2-(methylthio)acetyl)piper-azin-1-yl)phenyl)acrylamide] | < 1000 nM
O=C(/C=C/c1ccccc1N1CCN(C(=O)c2ccc3[nH]nnc3c2)CC1)NO [Example I-215, (E)-3-(2-(4-(1H-benzo[d][1,2,3]triazole-5-carbonyl)piperazin-1-yl)phenyl)-N-hydroxyacrylamide] | < 1000 nM
CC(C)(C)OC(=O)N1CCC2(CC1)CCN(c1ccccc1/C=C/C(=O)NO)CC2 [Example I-50, tert-butyl-(E)-9-(2-(3-(hydroxyamino)-3-oxoprop-1-en-1-yl)phenyl)-3,9-diazaspiro[5.5]undecane-3-carboxylate] | < 1000 nM
O=C(/C=C/c1ccccc1N1CCN(C(=O)c2ccc3c(c2)OCO3)CC1)NO [Example I-207, (E)-3-(2-(4-(benzo[d][1,3]dioxole-5-carbonyl)piperazin-1-yl)phenyl)-N-hydroxyacrylamide] | < 1000 nM
Cc1csc(CN2CCN(c3ccccc3/C=C/C(=O)NO)CC2)n1 [Example I-185, (E)-N-hydroxy-3-(2-(4-((4-methylthiazol-2-yl)methyl)piperazin-1-yl)phenyl)acrylamide] | < 1000 nM
O=C(/C=C/c1ccccc1N1CCC(NS(=O)(=O)C2CCCC2)CC1)NO [Example I-27, (E)-3-(2-(4-(cyclopentanesulfonamido)piperidin-1-yl)phenyl)-N-hydroxyacrylamide] | 1000 to 10000 nM
COc1ccccc1S(=O)(=O)N1CCN(c2ccccc2/C=C/C(=O)NO)CC1 [Example I-31, (E)-N-hydroxy-3-(2-(4-((2-methoxyphenyl)sulfonyl)piperazin-1-yl)phenyl)acrylamide] | 1000 to 10000 nM
O=C(/C=C/c1ccccc1N1CCC2(CCCNC2)CC1)NO [Example I-110, (E)-3-(2-(2,9-diazaspiro[5.5]undecan-9-yl)phenyl)-N-hydroxyacrylamide 2,2,2-trifluoroacetate] | < 1000 nM
O=C(/C=C/c1ccccc1NS(=O)(=O)c1cccc(C(F)(F)F)c1)NO [Example I-7, (E)-N-hydroxy-3-(2-(3-(trifluoromethyl)phenylsulfonamido)phenyl)acrylamide] | 1000 to 10000 nM
O=C(/C=C/c1ccccc1N1CCN(S(=O)(=O)c2ccc(OC(F)F)cc2)CC1)NO [Example I-30, (E)-3-(2-(4-((4-(difluoromethoxy)phenyl)sulfonyl)piperazin-1-yl)phenyl)-N-hydroxyacrylamide] | 1000 to 10000 nM
O=C(/C=C/c1ccccc1N1CCN(C(=O)c2cc3ccccc3[nH]2)CC1)NO [Example I-25, (E)-3-(2-(4-(1H-indole-2-carbonyl)piperazin-1-yl)phenyl)-N-hydroxyacrylamide] | 1000 to 10000 nM
CC(C)CCC(=O)NC1CCN(c2ccccc2/C=C/C(=O)NO)CC1 [Example I-157, (E)-N-(1-(2-(3-(hydroxyamino)-3-oxoprop-1-en-1-yl)phenyl)piperidin-4-yl)-4-methylpentanamide] | < 1000 nM
O=C(/C=C/c1ncccc1NC(=O)c1cccc(C(F)(F)F)c1)NO [Example I-124, (E)-N-(2-(3-(hydroxyamino)-3-oxoprop-1-en-1-yl)pyridin-3-yl)-3-(trifluoromethyl)benzamide] | < 1000 nM
O=C(/C=C/c1ccccc1N1CCN(C(=O)C2(c3cnccn3)CC2)CC1)NO [Example I-35, (2E)-N-hydroxy-3-(2-{4-[1-(pyrazin-2-yl)cyclopropanecarbonyl]piperazin-1-yl}phenyl)prop-2-enamide] | 1000 to 10000 nM
O=C(/C=C/c1ccccc1N1CCCCC1)NO [Example I-57, (E)-N-hydroxy-3-(2-(piperidin-1-yl)phenyl)acrylamide] | < 1000 nM
CC(C)S(=O)(=O)NC1CCN(c2ccccc2/C=C/C(=O)NO)CC1 [Example I-26] | 1000 to 10000 nM
O=C(/C=C/c1ccccc1NC(=O)c1cc2ccccn2n1)NO [Example I-82, (E)-N-(2-(3-(hydroxyamino)-3-oxoprop-1-en-1-yl)phenyl)pyrazolo[1,5-a]pyridine-2-carboxamide] | < 1000 nM
O=C(/C=C/c1ccccc1N1CCNCC1)NO [Example I-59, (E)-N-hydroxy-3-(2-(piperazin-1-yl)phenyl)acrylamide 2,2,2-trifluoroacetate] | < 1000 nM
CCCCC(=O)NC1CCN(c2ccccc2/C=C/C(=O)NO)CC1 [Example I-125, (E)-N-(1-(2-(3-(hydroxyamino)-3-oxoprop-1-en-1-yl)phenyl)piperidin-4-yl)pentanamide] | < 1000 nM
O=C(/C=C/c1ccccc1N1CCC(NC(=O)CC2CCS(=O)(=O)CC2)CC1)NO [Example I-151, (E)-3-(2-(4-(2-(1,1-dioxidotetrahydro-2H-thiopyran-4-yl)acetamido)piperidin-1-yl)phenyl)-N-hydroxyacrylamide] | < 1000 nM
O=C(/C=C/c1ccccc1N1CCC(NC(=O)c2ccc3[nH]nnc3c2)CC1)NO [Example I-161] | < 1000 nM
O=C(/C=C/c1ccccc1Nc1nc2ccccc2[nH]1)NO [Example I-1, (E)-3-(2-((1H-benzo[d]imidazol-2-yl)amino)phenyl)-N-hydroxyacrylamide] | 1000 to 10000 nM
O=C(/C=C/c1ccccc1N1CCN(S(=O)(=O)c2ccc(CNC(=O)c3ccccc3)s2)CC1)NO [Example I-32, (E)-N-((5-((4-(2-(3-(hydroxyamino)-3-oxoprop-1-en-1-yl)phenyl)piperazin-1-yl)sulfonyl)thiophen-2-yl)methyl)benzamide] | 1000 to 10000 nM
O=C(/C=C/c1ccccc1N1CCN(C(=O)CC23CCCN2CCC3)CC1)NO [Example I-24, (E)-N-hydroxy-3-(2-(4-(2-(tetrahydro-1H-pyrrolizin-7a(5H)-yl)acetyl)piperazin-1-yl)phenyl)acrylamide] | 1000 to 10000 nM
CN1CCCC(C(=O)N2CCN(c3ccccc3/C=C/C(=O)NO)CC2)C1 (centres unmarked) [Example I-209, (E)-N-hydroxy-3-(2-(4-(1-methylpiperidine-3-carbonyl)piperazin-1-yl)phenyl)acrylamide] | < 1000 nM
O=C(/C=C/c1ccccc1N1CCN(C(=O)C2(c3ccccc3)CCC2)CC1)NO [Example I-37, (E)-N-hydroxy-3-(2-(4-(1-phenylcyclobutane-1-carbonyl)piperazin-1-yl)phenyl)acrylamide] | 1000 to 10000 nM

Further lines, results first:

IC50 | Structure (SMILES)
< 1000 nM | O=C(/C=C/c1ccccc1N1CCC(NC(=O)Cc2ccc(F)cc2)CC1)NO [Example I-331, (E)-3-(2-(4-(2-(4-fluorophenyl)acetamido)piperidin-1-yl)phenyl)-N-hydroxyacrylamide]
< 1000 nM | Cc1noc(C)c1S(=O)(=O)N1CCN(c2ccccc2/C=C/C(=O)NO)CC1 [Example I-245, (E)-3-(2-(4-((3,5-dimethylisoxazol-4-yl)sulfonyl)piperazin-1-yl)phenyl)-N-hydroxyacrylamide]
< 1000 nM | O=C(/C=C/c1ccccc1NC1CCN(Cc2ccc(F)cc2)C1)NO (centres unmarked) [Example I-330, (E)-3-(2-((1-(4-fluorobenzyl)pyrrolidin-3-yl)amino)phenyl)-N-hydroxyacrylamide]
< 1000 nM | Cc1nc(C(C)C(=O)N2CCN(c3ccccc3/C=C/C(=O)NO)CC2)cs1 (centres unmarked) [Example I-289, (E)-N-hydroxy-3-(2-(4-(2-(2-methylthiazol-4-yl)propanoyl)piperazin-1-yl)phenyl)acrylamide]
< 1000 nM | O=C(/C=C/c1ccccc1N1CCC(NS(=O)(=O)c2ccc3c(c2)OCCO3)CC1)NO [Example I-231, (E)-3-(2-(4-((2,3-dihydrobenzo[b][1,4]dioxine)-6-sulfonamido)piperidin-1-yl)phenyl)-N-hydroxyacrylamide]
< 1000 nM | CC(C)S(=O)(=O)N1CCN(c2ccccc2/C=C/C(=O)NO)CC1 [Example I-249, (E)-N-hydroxy-3-(2-(4-(isopropylsulfonyl)piper-azine-1-yl)phenyl)acrylamide]
< 1000 nM | CC(CN1CCN(c2ccccc2/C=C/C(=O)NO)CC1)c1ccccc1 (centres unmarked) [Example I-300, (E)-N-hydroxy-3-(2-(4-(2-phenylpropyl)piperazin-1-yl)phenyl)acrylamide]
1000 to 10000 nM | O=C(/C=C/c1ccccc1C(=O)N1CC(N2CCS(=O)(=O)CC2)C1)NO [II-10, (E)-3-(2-(3-(1,1-dioxidothiomorpholino)azetidine-1-carbonyl)phenyl)-N-hydroxyacrylamide]
< 1000 nM | O=C(/C=C/c1ccccc1N1CCN(S(=O)(=O)c2ccc(C(F)(F)F)nc2)CC1)NO [Example I-248, (E)-N-hydroxy-3-(2-(4-((6-(trifluoromethyl)pyridin-3-yl)sulfonyl)piperazin-1-yl)phenyl)acrylamide]
< 1000 nM | CCCCc1ccc(NC(=O)c2ccccc2/C=C/C(=O)NO)cc1 [II-14, (E)-N-(4-butylphenyl)-2-(3-(hydroxyamino)-3-oxoprop-1-en-1-yl)benzamide]
< 1000 nM | O=C(/C=C/c1ccccc1N1CCN(CCc2ccc(Cl)cc2)CC1)NO [Example I-299, (E)-3-(2-(4-(4-chlorophenethyl)pipera-zin-1-yl)phenyl)-N-hydroxyacrylamide]
< 1000 nM | Cc1oc(-c2ccc(Cl)cc2)cc1C(=O)Nc1ccccc1/C=C/C(=O)NO [Example I-272, (E)-5-(4-chlorophenyl)-N-(2-(3-(hydroxyamino)-3-oxoprop-1-en-1-yl)phenyl)-2-methylfuran-3-carboxamide]
